Data as given in patent publication US10988523B2, “Modified lipidated Relaxin B chain peptides and their therapeutic use” (Sanofi, priority 2018, dated 2021).
*1 amine or outer side, *2 acyl side, *3 side chain or, on linkers, in order; H or OH if unused. Where a SMILES comes first, the peptide text is derived from it. Side-chain parts run from the residue outwards. [ ]: non-standard residue; d: D form. The star is where a group is joined. PEG24 = NCCOCCOCCOCCOCCOCCOCCOCCOCCOCCOCCOCCOCCOCCOCCOCCOCCOCCOCCOCCOCCOCCOCCOCCOCCC(=O)O; γGlu = O=C(O)[C@H](CCC(=O)[*:2])N[*:1]; Stearoyl = CCCCCCCCCCCCCCCCCC(=O)*; Palmitoyl = CCCCCCCCCCCCCCCC(=O)*; αMeK = C[C@](N)(CCCCN)C(=O)O; Nle = CCCC[C@H](N)C(=O)O; AEEA = NCCOCCOCC(=O)O; Aib = CC(C)(N)C(=O)O

Molecular target: T1, RXFP1 (Homo sapiens, UniProt Q9HBX9)
T1 construct: OVCAR5 cells expressing endogenous RXFP1; endogenous in cells; host or cells: OVCAR5 cells
T1 sequence (Q9HBX9 1-757): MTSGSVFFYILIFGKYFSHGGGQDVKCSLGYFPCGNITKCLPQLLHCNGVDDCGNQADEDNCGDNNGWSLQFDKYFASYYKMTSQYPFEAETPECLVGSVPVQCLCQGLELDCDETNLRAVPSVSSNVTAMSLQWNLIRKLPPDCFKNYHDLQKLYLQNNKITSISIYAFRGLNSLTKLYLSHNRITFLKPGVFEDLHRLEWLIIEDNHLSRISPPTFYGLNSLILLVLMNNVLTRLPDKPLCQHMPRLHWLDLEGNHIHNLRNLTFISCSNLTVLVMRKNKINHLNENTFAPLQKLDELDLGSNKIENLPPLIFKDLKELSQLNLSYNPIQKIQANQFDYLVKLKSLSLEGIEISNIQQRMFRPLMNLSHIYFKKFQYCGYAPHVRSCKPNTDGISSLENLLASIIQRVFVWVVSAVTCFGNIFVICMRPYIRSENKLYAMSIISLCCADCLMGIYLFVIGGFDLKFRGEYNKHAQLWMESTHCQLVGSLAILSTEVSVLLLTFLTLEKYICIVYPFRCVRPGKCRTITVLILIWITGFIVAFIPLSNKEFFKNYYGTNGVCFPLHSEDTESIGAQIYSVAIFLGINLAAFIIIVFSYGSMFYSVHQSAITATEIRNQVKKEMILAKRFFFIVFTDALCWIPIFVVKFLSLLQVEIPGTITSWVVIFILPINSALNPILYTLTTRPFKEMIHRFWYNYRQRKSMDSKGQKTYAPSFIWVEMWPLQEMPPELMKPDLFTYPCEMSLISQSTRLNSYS
Test: OVCAR5 cAMP assay (HTRF), RXFP1 agonist activity
Type: cell-based
Settings: for EC50: OVCAR5 cells, cAMP HTRF, read-out: EC50 (nM), OVCAR 5 cells (cAMP); for Emax: OVCAR-5, maximal cAMP relative to H2-relaxin maximum (100%), read-out: EMax, OVCAR 5 cells (cAMP)
How it was run: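 cAMP accumulation readout: after 1 mM IBMX for 40 min, endogenous-RXFP1 OVCAR5 cells got rising peptide concentrations without FCS, 30 min, 37° C, then lysis with HTRF cAMP reagents. Nonlinear regression gave EC50; Emax expressed relative to H2-relaxin maximum, same occasion.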

| EC50 [nM] | Emax [%] | SMILES |
| --- | --- | --- |
| 1 | 89 | CCCCCCCCCCCCCCCC(=O)N[C@@H](CCC(=O)NCCCC[C@H](NC(=O)CC[C@H](NC(=O)CC[C@H](NC(=O)COCCOCCNC(=O)COCCOCCNC(=O)COCCOCCNC(=O)COCCOCCNC(=O)[C@H](CCCCNC(C)=O)NC(=O)[C@H](CCCCN)NC(=O)[C@H](CCCNC(=N)N)NC(=O)C(C)(C)NC(=O)[C@H](CO)NC(=O)[C@H](Cc1c[nH]c2ccccc12)NC(=O)[C@@H](NC(=O)[C@H](CO)NC(=O)[C@H](CCCC)NC(=O)CNC(=O)[C@H](CCC(=O)O)NC(=O)C(C)(C)NC(=O)C(C)(C)NC(=O)[C@@H](NC(=O)[C@H](CCCCNC(C)=O)NC(=O)[C@H](C)NC(=O)[C@H](CCCNC(=N)N)NC(=O)[C@@H](NC(=O)[C@H](CCCCN)NC(=O)[C@H](CCC(=O)O)NC(=O)[C@H](CCCNC(=N)N)NC(=O)CNC(=O)[C@H](CCC(=O)O)NC(=O)[C@H](CC(C)C)NC(C)=O)C(C)C)[C@@H](C)CC)[C@@H](C)O)C(=O)O)C(=O)O)C(N)=O)C(=O)O [compound 116] (Ac-LEGREKVRAK(Ac)I[Aib][Aib]EG[Nle]STWS[Aib]RKK(Ac)[AEEA][AEEA][AEEA][AEEA][γGlu][γGlu]K([γGlu-Palmitoyl])-NH2) |
|  | 94 | CCCCCCCCCCCCCCCC(=O)N[C@@H](CCC(=O)N[C@@H](CCC(=O)N[C@@H](CCC(=O)NCCCC[C@H](NC(=O)COCCOCCNC(=O)COCCOCCNC(=O)COCCOCCNC(=O)COCCOCCNC(=O)[C@H](CCCCNC(C)=O)NC(=O)[C@H](CCCCN)NC(=O)[C@H](CCCNC(=N)N)NC(=O)C(C)(C)NC(=O)[C@H](CO)NC(=O)[C@H](Cc1ccccc1)NC(=O)[C@@H](NC(=O)[C@H](CO)NC(=O)[C@H](CCCC)NC(=O)CNC(=O)[C@H](CCC(=O)O)NC(=O)C(C)(C)NC(=O)C(C)(C)NC(=O)[C@@H](NC(=O)[C@H](CCCCNC(C)=O)NC(=O)[C@H](C)NC(=O)[C@H](CCCNC(=N)N)NC(=O)[C@@H](NC(=O)[C@H](CCCCN)NC(=O)[C@H](CCC(=O)O)NC(=O)[C@H](CCCNC(=N)N)NC(=O)CNC(=O)[C@H](CCC(=O)O)NC(=O)[C@H](CC(C)C)NC(C)=O)C(C)C)[C@@H](C)CC)[C@@H](C)O)C(N)=O)C(=O)O)C(=O)O)C(=O)O [compound 144] (Ac-LEGREKVRAK(Ac)I[Aib][Aib]EG[Nle]STFS[Aib]RKK(Ac)[AEEA][AEEA][AEEA][AEEA]K([γGlu-γGlu-γGlu-Palmitoyl])-NH2) |
| 0.22 | 91 | CCCCCCCCCCCCCCCCCC(=O)N[C@@H](CCC(=O)N[C@@H](CCC(=O)N[C@@H](CCC(=O)N[C@@H](CCC(=O)NCCOCCOCC(=O)NCCOCCOCC(=O)NCCOCCOCC(=O)NCCCC[C@H](NC(=O)[C@H](CCCCNC(C)=O)NC(=O)[C@H](CCCCN)NC(=O)[C@H](CCCNC(=N)N)NC(=O)C(C)(C)NC(=O)[C@H](CO)NC(=O)[C@H](Cc1c[nH]c2ccccc12)NC(=O)[C@@H](NC(=O)[C@H](CO)NC(=O)[C@H](CCCC)NC(=O)CNC(=O)[C@H](CCC(=O)O)NC(=O)C(C)(C)NC(=O)C(C)(C)NC(=O)[C@@H](NC(=O)[C@H](CCCCNC(C)=O)NC(=O)[C@H](C)NC(=O)[C@H](CCCNC(=N)N)NC(=O)[C@@H](NC(=O)[C@H](CCCCN)NC(=O)[C@H](CCC(=O)O)NC(=O)[C@H](CCCNC(=N)N)NC(=O)CNC(=O)[C@H](CCC(=O)O)NC(=O)[C@H](CC(C)C)NC(C)=O)C(C)C)[C@@H](C)CC)[C@@H](C)O)C(N)=O)C(=O)O)C(=O)O)C(=O)O)C(=O)O [compound 128] (Ac-LEGREKVRAK(Ac)I[Aib][Aib]EG[Nle]STWS[Aib]RKK(Ac)K([AEEA-AEEA-AEEA-γGlu-γGlu-γGlu-γGlu-Stearoyl])-NH2) |
|  | 97 | CCCCCCCCCCCCCCCCCC(=O)N[C@@H](CCC(=O)N[C@@H](CCC(=O)N[C@@H](CCC(=O)NCCOCCOCC(=O)NCCOCCOCC(=O)NCCOCCOCC(=O)NCCOCCOCC(=O)NCCCC[C@H](NC(=O)[C@H](CCCCNC(C)=O)NC(=O)[C@H](C)NC(=O)[C@H](CCCNC(=N)N)NC(=O)[C@](C)(CCCCN)NC(=O)[C@H](CO)NC(=O)[C@H](Cc1c[nH]c2ccccc12)NC(=O)[C@@H](NC(=O)[C@H](CO)NC(=O)[C@H](CCCC)NC(=O)CNC(=O)[C@H](CCC(=O)O)NC(=O)C(C)(C)NC(=O)C(C)(C)NC(=O)[C@@H](NC(=O)[C@H](CCCCNC(C)=O)NC(=O)[C@H](C)NC(=O)[C@H](CCCNC(=N)N)NC(=O)[C@@H](NC(=O)[C@H](CCCCN)NC(=O)[C@H](CCC(=O)O)NC(=O)[C@H](CCCNC(=N)N)NC(=O)CNC(=O)[C@H](CCC(=O)O)NC(=O)[C@H](CC(C)C)NC(C)=O)C(C)C)[C@@H](C)CC)[C@@H](C)O)C(N)=O)C(=O)O)C(=O)O)C(=O)O [compound 135] (Ac-LEGREKVRAK(Ac)I[Aib][Aib]EG[Nle]STWS[αMeK]RAK(Ac)K([AEEA-AEEA-AEEA-AEEA-γGlu-γGlu-γGlu-Stearoyl])-NH2) |

Further lines, the compound ahead of its results:

| SMILES | EC50 [nM] | Emax [%] |
| --- | --- | --- |
| CCCCCCCCCCCCCCCC(=O)N[C@@H](CCC(=O)N[C@@H](CCC(=O)N[C@@H](CCC(=O)NCCCC[C@H](NC(=O)CCOCCOCCOCCOCCOCCOCCOCCOCCOCCOCCOCCOCCOCCOCCOCCOCCOCCOCCOCCOCCOCCOCCOCCOCCNC(=O)[C@H](CCCCN)NC(=O)[C@H](CCCNC(=N)N)NC(=O)C(C)(C)NC(=O)[C@H](CO)NC(=O)[C@H](Cc1c[nH]c2ccccc12)NC(=O)[C@@H](NC(=O)[C@H](CO)NC(=O)[C@H](CCSC)NC(=O)CNC(=O)[C@H](CCC(=O)O)NC(=O)C(C)(C)NC(=O)C(C)(C)NC(=O)[C@@H](NC(=O)[C@H](CCC(N)=O)NC(=O)[C@H](C)NC(=O)[C@H](CCCNC(=N)N)NC(=O)[C@@H](NC(=O)[C@H](CCCCN)NC(=O)[C@H](CCC(=O)O)NC(=O)[C@H](CCCNC(=N)N)NC(=O)CNC(=O)[C@H](CCC(=O)O)NC(=O)[C@H](CC(C)C)NC(C)=O)C(C)C)[C@@H](C)CC)[C@@H](C)O)C(N)=O)C(=O)O)C(=O)O)C(=O)O [compound 47] (Ac-LEGREKVRAQI[Aib][Aib]EGMSTWS[Aib]RK[PEG24]K([γGlu-γGlu-γGlu-Palmitoyl])-NH2) |  | 100 |
| CCCCCCCCCCCCCCCC(=O)N[C@@H](CCC(=O)N[C@@H](CCC(=O)NCCCC[C@H](NC(=O)[C@H](CCCCN)NC(=O)[C@H](CCCNC(=N)N)NC(=O)C(C)(C)NC(=O)[C@H](CO)NC(=O)[C@H](Cc1c[nH]c2ccccc12)NC(=O)[C@@H](NC(=O)[C@H](CO)NC(=O)[C@H](CCCC)NC(=O)CNC(=O)[C@H](CCC(=O)O)NC(=O)C(C)(C)NC(=O)C(C)(C)NC(=O)[C@@H](NC(=O)[C@H](C)NC(=O)[C@H](C)NC(=O)[C@H](CCCNC(=N)N)NC(=O)[C@@H](NC(=O)[C@H](CCCCN)NC(=O)[C@H](CCC(=O)O)NC(=O)[C@H](CCCNC(=N)N)NC(=O)CNC(=O)[C@H](CCC(=O)O)NC(=O)[C@H](CC(C)C)NC(=O)[C@H](CCC(=O)O)NC(C)=O)C(C)C)[C@@H](C)CC)[C@@H](C)O)C(N)=O)C(=O)O)C(=O)O [compound 4] (Ac-ELEGREKVRAAI[Aib][Aib]EG[Nle]STWS[Aib]RKK([γGlu-γGlu-Palmitoyl])-NH2) |  | 99 |
| CCCCCCCCCCCCCCCC(=O)N[C@@H](CCC(=O)N[C@@H](CCC(=O)N[C@@H](CCC(=O)NCCCC[C@H](NC(=O)COCCOCCNC(=O)[C@H](CCCCN)NC(=O)[C@H](CCCNC(=N)N)NC(=O)C(C)(C)NC(=O)[C@H](CO)NC(=O)[C@H](Cc1c[nH]c2ccccc12)NC(=O)[C@@H](NC(=O)[C@H](CO)NC(=O)[C@H](CCCC)NC(=O)CNC(=O)[C@H](CCC(=O)O)NC(=O)C(C)(C)NC(=O)C(C)(C)NC(=O)[C@@H](NC(=O)[C@H](CCC(N)=O)NC(=O)[C@H](C)NC(=O)[C@H](CCCNC(=N)N)NC(=O)[C@@H](NC(=O)[C@H](CCCCN)NC(=O)[C@H](CCC(=O)O)NC(=O)[C@H](CCCNC(=N)N)NC(=O)CNC(=O)[C@H](CCC(=O)O)NC(=O)[C@H](CC(C)C)NC(C)=O)C(C)C)[C@@H](C)CC)[C@@H](C)O)C(N)=O)C(=O)O)C(=O)O)C(=O)O [compound 10] (Ac-LEGREKVRAQI[Aib][Aib]EG[Nle]STWS[Aib]RK[AEEA]K([γGlu-γGlu-γGlu-Palmitoyl])-NH2) |  | 96 |
| CCCCCCCCCCCCCCCCCC(=O)N[C@@H](CCC(=O)NCCCC[C@H](NC(=O)[C@H](CCCCN)NC(=O)[C@H](CCCNC(=N)N)NC(=O)C(C)(C)NC(=O)[C@H](CO)NC(=O)[C@H](Cc1c[nH]c2ccccc12)NC(=O)[C@@H](NC(=O)[C@H](CO)NC(=O)[C@H](CCCC)NC(=O)CNC(=O)[C@H](CCC(=O)O)NC(=O)C(C)(C)NC(=O)C(C)(C)NC(=O)[C@@H](NC(=O)[C@H](CCC(N)=O)NC(=O)[C@H](C)NC(=O)[C@H](CCCNC(=N)N)NC(=O)[C@@H](NC(=O)[C@H](CCCCN)NC(=O)[C@H](CCC(=O)O)NC(=O)[C@H](CCCNC(=N)N)NC(=O)CNC(=O)[C@H](CCC(=O)O)NC(=O)[C@H](CC(C)C)NC(C)=O)C(C)C)[C@@H](C)CC)[C@@H](C)O)C(N)=O)C(=O)O [compound 3] (Ac-LEGREKVRAQI[Aib][Aib]EG[Nle]STWS[Aib]RKK([γGlu-Stearoyl])-NH2) |  | 93 |
